Experimental data from patent publication US12195760B2, “Method for enhancing proliferation capability of stem cells using ethionamide” (SAMSUNG LIFE PUBLIC WELFARE FOUNDATION, priority 2016, dated 2025).

Experiments:
[1] = test system: human umbilical cord mesenchymal stem cells
Protocol: After 72 hours, cell proliferation analysis was performed. For this purpose, a BrdU cell proliferation assay kit (Cell Signaling Technology, USA) using 5-bromo-2′-deoxyuridine (BrdU) bound during DNA synthesis in cells was used. Specifically, BrdU was added to cells, and reacted for 24 hours. Thereafter, the cells were immobilized, and DNA was denatured. Then, the cells were treated with an anti-BrdU antibody, and then reacted with a tetramethylbenzidine (TMB) substrate using a secondary antibody conjugated with horse-radish peroxidase (HRP), and an absorbance value was measured at 450 nm using an ELISA reader.

[2] = test system: human umbilical cord mesenchymal stem cells; details: ethionamide-primed MSCs compared to control not treated
Protocol: More specifically, the human umbilical cord mesenchymal stem cells (2×10^5 cells) were equally divided into 1.5 ml microtubes, treated with 100 μL of phosphate-buffered saline (PBS) containing 2% FBS, treated with an antibody bound to fluorescein isothiocyanate (FITC), phycoerythrin (PE), or allophycocyanin (APC), and then reacted at room temperature for 20 minutes. […] After the reaction, an antibody reaction was neutralized with PBS containing 2% FBS, and it was then determined whether the positive and negative markers were expressed using a flow cytometer.

[3] = test system: human umbilical cord mesenchymal stem cells; details: ethionamide-primed MSCs compared to control not treated; Oil red O, Alizarin Red S, Safranin-O; FIGS. 3A to 3C
Protocol: Specifically, to induce differentiation into adipocytes or osteocytes, human umbilical cord mesenchymal stem cells (1×10^5 cells) cultured in a medium treated with ethionamide were seeded in a 6-well plate, and the differentiation was induced for approximately 3 weeks using adipogenesis/osteogenesis differentiation kits (Gibco, USA) while replacing the medium with a fresh medium twice a week. Thereafter, the cells differentiated into adipocytes and osteocytes were stained with Oil red O and Alizarin Red S to check whether the cells were differentiated into adipocytes and osteocytes. Quantification of the adipocytes was carried out by completely removing the medium from differentiation culture containers, drying the culture containers, putting 100% isopropanol into the culture containers, culturing the cells at room temperature for 10 minutes, thoroughly mixing the differentiated cells with 100% isopropanol, and measuring an absorbance at 500 nm to quantify the degree of differentiation. Quantification of the osteocytes was carried out by quantifying the degree of differentiation using an Alizarin Red S staining quantification assay kit (ScienCell, USA). […]

## CCc1cc(C(N)=S)ccn1 [ethionamide, 2-ethylpyridine-4-carbothioamide]
[1]; 10 uM or 100 uM ethionamide, treated for 72 hours, FIG. 1B
  proliferation rate according to treatment time: most significantly enhanced
[1]; ethionamide at a concentration of 50 uM or more (tested 1 to 500 μM), 72 hours, BrdU absorbance 450 nm, FIG. 1A
  proliferation rate of the cells according to treatment concentration: significantly enhanced
[2]; FIG. 2A
  expression of positive markers CD44, CD73, CD90, CD105, CD166: expressed at a similar level
[2]; FIG. 2B
  expression of negative markers CD11b, CD14, CD19, CD34, CD45, HLA-DR: not expressed at a level similar to the control
[3]
  differentiation into adipocytes, osteocytes, and chondrocytes: well differentiated
